Source: patent US20110093959A1, “CRYPTOTIS PARVA SCREENING MODEL FOR ANTIEMETIC POTENTIAL” (priority 2008, published 2011)
Where “and” joins values, the source holds several entries; their conditions need not be identical. Equal entries are not always repeated.

Assays:
Assay type in all cases: in vivo, Cryptotis parva
Least Shrew = experiment: CIS dose-response emesis, abdominal contractions and feeding, 47-hour observation; conditions: for total frequency of emesis vs vehicle control: immediate and delayed phases
From the text: During the dark night phase a red light bulb was used to illuminate the shrew cage.
To habituate the shrews to the test environment, each animal was randomly selected and transferred to a 14×17×12 cm clean opaque plastic cage and was offered ten mealworms 1 hr prior to experimentation. […] Immediately following injection, each shrew was returned to its cage and their behaviors were videotaped for the next 47 hr. Animals were allowed ad libitum access to food (mealworms) and water. Food supply was maintained by making sure that two meal worms were always available in the cage throughout the observation time. Water was available throughout the experiment via small plastic container (1 cm in diameter and 0.5 cm in height) glued to the floor of each cage. The mean frequencies (±SEM) of vomitings (wet, dry and total) and abdominal contractions per hour and the number of mealworms eaten per hour, were scored separately from videotape recordings for each individual shrew for the entire observation period by a trained observer blind to the experimental conditions.
(§1) When a significant dose and exposure interaction was found, then simple effects at a particular emesis phase was tested via a one-way ANOVA. Neurochemical data were initially analyzed by two-way analysis of variance (ANOVA) with drug dose (0 mg/kg and 10 mg/kg) and exposure time (2 hr and 33 hr) as factors. […] For each statistical test, a P value of<0.05 was necessary to achieve statistical significance.

[1] = test system: substance P tissue levels; experiment: Substance P tissue levels after CIS (EIA)
Description: (§2) These parameters were used in our neurochemical studies. Prior to experimentation, shrews were habituated to the laboratory environment as described for the behavioral studies. […] Subgroups of each treatment were sacrificed by rapid decapitation at either 2 hr or 33 hr post-injection.
Preliminary sample preparation procedures were carried out to optimize detection conditions in accord with our published methods (Darmani et al., 2008). […] As proteases can be also deactivated by heat, at basic pH and in the presence of EDTA (Darmani et al., 2008), the entire intestine was immediately immersed in a 70° C. preheated for 5 min, 5 ml solution of normal saline containing […] EDTA at pH 8.0 in accordance to published methods (Darmani et al., 2008). Each sample was allowed to cool down naturally to room temperature and then each gut was thrice flushed and rinsed with 5 ml of the cited saline solution. Then, each gut was dissected and the duodenum and jejunum samples were placed separately in test tubes containing 1 ml assay buffer. The dissected frontal cortex and brainstem samples were placed in different test tubes containing 0.5 ml assay buffer. Each sample was homogenized using a tissue tearer (Biospec) set at level 5 for 15 sec. The homogenates were then centrifuged at 17,000×g for 15 min at 4° C. The supernatants were obtained and saved at […] until used for the EIA detection of SP. Samples were analyzed for SP using the “Correlate-EIA” kit from Assay Designs using a microplate reader.
as §1

[2] = test system: 5-HT, 5-HIAA, dopamine and HVA tissue levels; experiment: Monoamine and metabolite tissue levels after CIS (HPLC-ECD); conditions: for increase in brainstem 5-HT tissue level vs vehicle: CIS 10 mg/kg i.p.; for frontal cortex 5-HIAA level: not significantly different from vehicle
Description: as §2
Brains were rapidly removed and dissected on an ice-cold petri dish, the frontal cortex and brainstem were immediately frozen on dry-ice and stored at […] until analysis. Likewise, each gut was rapidly removed and washed with ice-cold saline three times prior to sectioning into succeeding 2 cm portions starting from the end of the stomach (duodenal and jejunal sections, respectively), followed by rapid freezing as described above. Each frontal cortex, brainstem and intestinal sample was respectively homogenized (tissue tearer, setting 5 sec for 15 sec) in 1 ml, 2 ml, or 3 ml ice-cold 0.2 M perchloric acid respectively containing 0.3 M ethylenediamine-tetraacetic acid disodium (EDTA). A 0.1 ml portion of each homogenate was removed for protein analysis. The protein concentration was determined by the use of BCA protein assay kit (Pierce; Rockford, Ill.). Then, homogenates were centrifuged at 40,000 g for 30 min at 4° C. to precipitate protein. The supernatant was filtered through a 0.2 μm nylon filter in a microcentrifuge tube at 1,500 g for 10 min at 4° C. A 10 μl aliquot of each filtered supernatant was assayed for the presence of monoamines and their metabolites.
Monoamines and their metabolites were analyzed by high performance liquid chromatography with electrochemical detection (HPLC-ECD) based upon our established method (Darmani et al., 2003). Separation of 5-HT, dopamine and their corresponding metabolites (5-HIAA and HVA) from other electroactive compounds was achieved on a 10 cm×3.2 mm RP-C18 column (ODS 3 um packing; BAS Inc., W. Lafayette, Ind.) and a mobile phase containing 0.15 M chloroacetic acid, 0.12 M sodium hydroxide, 0.18 mM ethylenediamine-tetraacetic acid disodium (EDTA), 1.1 mM sodium octane sulfonic acid and 5% acetonitrile. The monoamines and their metabolites were separated and measured through the cited column via a Shumadzu L-ECD-6A detector, connected to a Shimadzu LC-10 AD pump and a C-R7Ae chromatopac integrator (Kyoto, Japan). The glassy carbon working electrode was set at a potential of 650 mV relative to an Ag/AgCl reference electrode. The detection limit for dopamine and 5-HT were 2 and 5 pg respectively, based on a signal to noise ratio of 3:1. Peak heights of unknowns were compared to the mean peak heights of a 200 pg standard solution (containing 5-HT, dopamine, 5-HIAA and HVA) which were run daily after every fifth tissue supernatant sample. The intestinal HVA concentrations could not be determined due to an unknown interfering peak in the gut tissue eluates.
as §1

[3] = CIS 10 mg/kg, i.p., post exposure
[4] = CIS 10 mg/kg, 2 hour (immediate phase)
[5] = CIS 10 mg/kg, 33 hour (delayed phase)
[6] = CIS 0 and 10 mg/kg, 2 and 33 hour

With `N.N.[Cl][Pt][Cl]` [CIS, cis-platinum(II)diamine dichloride] the “peak immediate phase of emesis” value (Least Shrew; CIS 5 mg/kg, i.p.) was “third hour”, the “mealworms eaten vs control” value (Least Shrew; CIS 5 mg/kg, first night) was “ate significantly more” and the “time of maximal mean frequency of emesis, delayed phase” value (Least Shrew; [3]) was 33 h. The “time of maximal mean frequency of emesis, immediate phase” value (Least Shrew; [3]) was 2 h and 2 to 3 h, the “mealworms eaten vs control” value (Least Shrew; CIS 10 mg/kg, day 1) was “ate significantly more” and the “mealworms eaten vs control” value (Least Shrew; CIS 10 mg/kg, day 2) was “ate significantly less”. For the same compound, the “frequency of abdominal contractions vs vehicle” value (Least Shrew; CIS 10 mg/kg, delayed phase) was “greater frequencies”, the “frequency of dry emesis vs vehicle control” value (Least Shrew; CIS 10 mg/kg, delayed phase) was “greater frequencies” and the “total frequency of emesis vs vehicle control” value (Least Shrew; CIS 10 mg/kg) was “significantly different”. For the same compound, the “frequency of wet emesis vs control” value (Least Shrew; CIS 10 mg/kg, immediate phase) was “significantly greater frequencies”, the “time from which animals expired” value (Least Shrew; CIS 20 mg/kg, i.p., post-CIS exposure) was no less than 30 h and the “mealworms eaten vs control” value (Least Shrew; CIS 20 mg/kg, day 1) was “ate less”. The “mealworms eaten vs control” value (Least Shrew; CIS 20 mg/kg, day 2) was “ate significantly less”, the “frequency of abdominal contractions vs vehicle” value (Least Shrew; CIS 20 mg/kg, delayed phase) was “greater frequencies” and the “mealworms eaten vs control” value (Least Shrew; CIS 20 mg/kg, first night) was “ate significantly less”. The “total frequency of emesis vs vehicle control” value (Least Shrew; CIS 20 mg/kg) was “significantly different”, the “frequency of dry vomiting vs vehicle control” value (Least Shrew; CIS 20 mg/kg, immediate phase) was “significantly greater frequencies” and the “frequency of wet emesis vs control” value (Least Shrew; CIS 20 mg/kg, immediate phase) was “significantly greater frequencies”. For the same compound, the “mean frequency of abdominal contractions vs vehicle” value (Least Shrew; CIS 20 mg/kg, immediate phase) was “significantly greater”, the “wet vomiting, dose effect” value (Least Shrew; CIS 5-20 mg/kg, delayed phase) was “no significant dose effect” and the “duodenal SP tissue levels” value ([1]; CIS 10 mg/kg, 2 and 33 hour) was “failed to exhibit a significant effect”. The “frontal cortex SP tissue levels vs vehicle” value ([1]; CIS 10 mg/kg, 2 hour) was “no significant difference”, the “increase in brainstem SP levels vs vehicle” value [1, 4] was 1396% and the “increase in jejunal SP levels vs vehicle” value [1, 4] was 333%. The “decrease in frontal cortex SP levels vs vehicle” value ([1]; CIS 10 mg/kg, 33 hour) was 39.2%, the “increase in brainstem SP levels vs vehicle” value [1, 5] was 956% and the “increase in jejunal SP levels vs vehicle” value [1, 5] was 226.5%. For the same compound, the “brainstem mean SP level lower at 33 hour than at 2 hour” value ([1]; CIS groups) was 100%, the brainstem dopamine levels [2, 6] was “no overall significant effect” and the duodenum dopamine levels [2, 6] was “no overall significant effect”. The “frontal cortex serotonin levels” value [2, 6] was “no significant overall effect”, the “duodenal tissue concentration of 5-HIAA” value ([2]; CIS 10 mg/kg) was “not significantly altered” and the “increase in jejunal dopamine concentration” value ([2]; CIS 10 mg/kg at 33 hour vs 0 mg/kg control at 2 hour) was 121%. For the same compound, the “increase in jejunal dopamine concentration” value ([2]; CIS 10 mg/kg at 33 hour vs 0 mg/kg control at 33 hour) was 171%, the “frontal cortex HVA at 33 hour less than at 2 hour” value ([2]; CIS 10 mg/kg dose) was 32.4% and the “jejunal 5-HT at 2 hour smaller than at 33 hours” value ([2]; CIS 10 mg/kg dose) was 114.5%. For the same compound, the “brainstem 5-HT level at 33 hour greater than at 2 hour” value ([2]; CIS 10 mg/kg group) was 33.9%, the “brainstem HVA at 33 hour greater than at 2 hour” value ([2]; CIS 10 mg/kg group) was 37% and the “increase in brainstem 5-HT tissue level vs vehicle” value ([2]; 2 hour) was 68.2%. The “increase in brainstem 5-HT tissue level vs vehicle” value ([2]; 33 hour) was 25%, the “duodenal 5-HT concentrations” value ([2]; CIS 10 mg/kg, 2 and 33 hour) was “not significantly altered” and the “frontal cortex dopamine tissue level vs control” value ([2]; CIS 10 mg/kg, 2 hour) was “significant increase”. For the same compound, the “increase in brainstem 5-HIAA level vs vehicle” value ([2]; CIS 10 mg/kg, 2 hour) was 43.8%, the “increase in brainstem HVA levels vs control” value ([2]; CIS 10 mg/kg, 2 hour) was 65.5% and the “increase in jejunal 5-HIAA concentration vs control” value ([2]; CIS 10 mg/kg, 2 hour) was 32.4%. For the same compound, the “reduction of jejunal 5-HT tissue concentration vs control” value ([2]; CIS 10 mg/kg, 2 hour) was 49.1%, the “frontal cortex 5-HIAA level” value ([2]; CIS 10 mg/kg, 2 hour) was 1.1±0.07 and the “decrease in frontal cortex HVA concentration vs vehicle” value ([2]; CIS 10 mg/kg, 33 hour) was 35.9%. The “increase in brainstem 5-HIAA level vs vehicle” value ([2]; CIS 10 mg/kg, 33 hour) was 26.7%, the “increase of jejunal 5-HT tissue concentration vs control” value ([2]; CIS 10 mg/kg, 33 hour) was ~50% and 41.8% and the “frontal cortex 5-HIAA level” value ([2]; CIS 10 mg/kg, 33 hour) was 0.91±0.11. For the same compound, the “increase in brainstem HVA levels vs control” value ([2]; CIS 10 mg/kg, 33 hours) was 27.7%, the “duodenal 5-HT at 33 hours greater than at 2 hour” value ([2]; CIS-treated animals) was 48.5% and the “brainstem 5-HIAA at 33 hour greater than at 2 hour” value ([2]; CIS-treated group) was 49.2%.
